Laboratory results: ChEMBL document CHEMBL5465560, “Selectivity Literature for EUbOPEN Chemogenomic Library” (2024)
Blank lines part the entries; values can stand above or below the molecule they belong to.

Columns and labels:
[1] = target: Serine/threonine-protein kinase N2 (Homo sapiens, UniProt Q16513); experiment: Selectivity interaction (Kinase panel (literature)) EUB0001199aCl PKN2; conditions: at 1 µM
[2] = target: T1, 5-hydroxytryptamine receptor 3A (Homo sapiens) (UniProt P46098); experiment: Selectivity interaction (GPCR panel (PDSP screen)) EUB0001079a HTR3A; conditions: at 10 µM
T1 sequence (whole entry): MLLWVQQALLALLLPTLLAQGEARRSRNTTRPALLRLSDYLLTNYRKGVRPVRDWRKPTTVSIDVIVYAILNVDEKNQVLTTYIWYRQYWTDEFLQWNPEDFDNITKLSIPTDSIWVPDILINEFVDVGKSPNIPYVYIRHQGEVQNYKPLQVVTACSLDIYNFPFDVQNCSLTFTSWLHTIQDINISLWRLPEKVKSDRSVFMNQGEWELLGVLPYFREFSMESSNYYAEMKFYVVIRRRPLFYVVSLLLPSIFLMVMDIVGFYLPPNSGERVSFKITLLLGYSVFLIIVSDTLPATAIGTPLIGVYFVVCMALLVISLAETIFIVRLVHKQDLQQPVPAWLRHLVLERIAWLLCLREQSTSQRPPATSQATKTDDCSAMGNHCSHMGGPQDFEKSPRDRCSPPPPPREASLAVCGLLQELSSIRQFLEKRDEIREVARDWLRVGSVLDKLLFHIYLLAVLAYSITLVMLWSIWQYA

[3] = target: T2, Serine/threonine-protein kinase D3 (Homo sapiens) (UniProt O94806); experiment: Selectivity interaction (KinomeScan (DiscoverX)) EUB0000607a PRKD3; conditions: at 10 µM
T2 sequence (whole entry): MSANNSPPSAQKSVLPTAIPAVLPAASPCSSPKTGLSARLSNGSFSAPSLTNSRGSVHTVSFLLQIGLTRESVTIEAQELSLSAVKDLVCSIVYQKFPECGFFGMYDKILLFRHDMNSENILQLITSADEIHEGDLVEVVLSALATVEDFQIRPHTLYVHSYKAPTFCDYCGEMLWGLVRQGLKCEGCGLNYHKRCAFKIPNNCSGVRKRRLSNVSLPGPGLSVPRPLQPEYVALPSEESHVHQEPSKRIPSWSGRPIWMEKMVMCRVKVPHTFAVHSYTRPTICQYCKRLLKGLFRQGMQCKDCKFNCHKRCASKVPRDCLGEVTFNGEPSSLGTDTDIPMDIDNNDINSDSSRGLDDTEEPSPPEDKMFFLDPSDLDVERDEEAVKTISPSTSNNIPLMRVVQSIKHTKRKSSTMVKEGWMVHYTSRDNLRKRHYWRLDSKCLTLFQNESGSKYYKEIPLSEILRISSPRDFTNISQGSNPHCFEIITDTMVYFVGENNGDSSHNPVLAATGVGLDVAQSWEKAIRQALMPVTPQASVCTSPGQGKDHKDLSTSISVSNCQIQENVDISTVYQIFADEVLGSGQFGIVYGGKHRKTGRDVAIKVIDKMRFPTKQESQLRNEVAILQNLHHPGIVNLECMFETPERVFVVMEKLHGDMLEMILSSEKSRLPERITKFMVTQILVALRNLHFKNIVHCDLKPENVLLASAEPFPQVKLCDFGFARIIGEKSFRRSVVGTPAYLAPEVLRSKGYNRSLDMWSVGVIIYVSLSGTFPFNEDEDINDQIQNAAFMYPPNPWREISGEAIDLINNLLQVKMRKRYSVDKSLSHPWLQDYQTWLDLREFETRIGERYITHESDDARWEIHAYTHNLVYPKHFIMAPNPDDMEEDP

[4] = target: Microtubule-associated serine/threonine-protein kinase 1 (Homo sapiens) (UniProt Q9Y2H9); experiment: Selectivity interaction (KinomeScan (DiscoverX)) EUB0000045b MAST1
[5] = target: Protein kinase C theta type (Homo sapiens, UniProt Q04759); experiment: Selectivity interaction (KinomeScan (DiscoverX)) EUB0000045b PRKCQ
[6] = target: Receptor-interacting serine/threonine-protein kinase 2 (Homo sapiens, UniProt O43353); experiment: Selectivity interaction (Upstate Kinase Profiler service (Millipore)) EUB0000056c RIPK2; conditions: at 1 µM
[7] = Selectivity interaction (Kinase panel (KiNativ target engagement assay in Jurkat cells)) EUB0001635a STLK6; conditions: Selectivity number of off-targets 0; Selectivity number of targets 233; Source Knowledge https://www.sciencedirect.com/science/article/pii/S2451945619300674?via%3Dihub; at 1 µM
[8] = target: T3, Serine/threonine-protein kinase ULK2 (Homo sapiens) (UniProt Q8IYT8); conditions: at 10 µM
T3 sequence (whole entry): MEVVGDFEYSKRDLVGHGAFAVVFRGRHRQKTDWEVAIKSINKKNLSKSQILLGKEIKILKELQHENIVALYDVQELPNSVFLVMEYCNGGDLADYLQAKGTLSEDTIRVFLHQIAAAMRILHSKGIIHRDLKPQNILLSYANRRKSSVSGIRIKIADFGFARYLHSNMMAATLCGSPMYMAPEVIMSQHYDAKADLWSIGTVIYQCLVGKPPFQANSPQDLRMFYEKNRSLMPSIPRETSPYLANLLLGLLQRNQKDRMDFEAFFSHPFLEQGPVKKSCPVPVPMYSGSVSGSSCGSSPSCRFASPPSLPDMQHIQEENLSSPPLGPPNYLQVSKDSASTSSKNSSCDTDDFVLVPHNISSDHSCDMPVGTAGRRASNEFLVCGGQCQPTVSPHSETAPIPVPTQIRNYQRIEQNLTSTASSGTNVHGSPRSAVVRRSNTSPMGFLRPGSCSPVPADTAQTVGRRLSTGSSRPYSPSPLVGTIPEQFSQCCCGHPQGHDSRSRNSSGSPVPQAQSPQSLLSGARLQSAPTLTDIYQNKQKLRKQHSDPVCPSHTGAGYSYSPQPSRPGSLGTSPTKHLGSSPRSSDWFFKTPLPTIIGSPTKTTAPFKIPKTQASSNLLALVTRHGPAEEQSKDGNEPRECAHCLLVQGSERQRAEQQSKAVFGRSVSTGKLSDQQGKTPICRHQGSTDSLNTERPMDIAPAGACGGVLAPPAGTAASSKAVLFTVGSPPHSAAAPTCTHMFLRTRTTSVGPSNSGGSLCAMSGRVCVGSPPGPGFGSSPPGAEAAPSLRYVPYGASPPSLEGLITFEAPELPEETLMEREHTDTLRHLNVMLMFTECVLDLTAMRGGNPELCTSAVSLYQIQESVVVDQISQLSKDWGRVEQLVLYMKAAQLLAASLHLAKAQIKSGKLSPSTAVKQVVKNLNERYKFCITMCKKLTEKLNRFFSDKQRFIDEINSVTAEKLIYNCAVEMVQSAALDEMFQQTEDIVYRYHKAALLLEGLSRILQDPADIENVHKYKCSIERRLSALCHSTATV

[9] = target: Vascular endothelial growth factor receptor 3 (Homo sapiens, UniProt P35916)
[10] = target: Serine/threonine-protein kinase MRCK beta (Homo sapiens) (UniProt Q9Y5S2); experiment: Selectivity interaction (KinomeScan (DiscoverX)) EUB0000666a CDC42BPB; conditions: at 10 µM

Sequence of Microtubule-associated serine/threonine-protein kinase 1 (Homo sapiens) (Q9Y2H9 whole entry, looked up): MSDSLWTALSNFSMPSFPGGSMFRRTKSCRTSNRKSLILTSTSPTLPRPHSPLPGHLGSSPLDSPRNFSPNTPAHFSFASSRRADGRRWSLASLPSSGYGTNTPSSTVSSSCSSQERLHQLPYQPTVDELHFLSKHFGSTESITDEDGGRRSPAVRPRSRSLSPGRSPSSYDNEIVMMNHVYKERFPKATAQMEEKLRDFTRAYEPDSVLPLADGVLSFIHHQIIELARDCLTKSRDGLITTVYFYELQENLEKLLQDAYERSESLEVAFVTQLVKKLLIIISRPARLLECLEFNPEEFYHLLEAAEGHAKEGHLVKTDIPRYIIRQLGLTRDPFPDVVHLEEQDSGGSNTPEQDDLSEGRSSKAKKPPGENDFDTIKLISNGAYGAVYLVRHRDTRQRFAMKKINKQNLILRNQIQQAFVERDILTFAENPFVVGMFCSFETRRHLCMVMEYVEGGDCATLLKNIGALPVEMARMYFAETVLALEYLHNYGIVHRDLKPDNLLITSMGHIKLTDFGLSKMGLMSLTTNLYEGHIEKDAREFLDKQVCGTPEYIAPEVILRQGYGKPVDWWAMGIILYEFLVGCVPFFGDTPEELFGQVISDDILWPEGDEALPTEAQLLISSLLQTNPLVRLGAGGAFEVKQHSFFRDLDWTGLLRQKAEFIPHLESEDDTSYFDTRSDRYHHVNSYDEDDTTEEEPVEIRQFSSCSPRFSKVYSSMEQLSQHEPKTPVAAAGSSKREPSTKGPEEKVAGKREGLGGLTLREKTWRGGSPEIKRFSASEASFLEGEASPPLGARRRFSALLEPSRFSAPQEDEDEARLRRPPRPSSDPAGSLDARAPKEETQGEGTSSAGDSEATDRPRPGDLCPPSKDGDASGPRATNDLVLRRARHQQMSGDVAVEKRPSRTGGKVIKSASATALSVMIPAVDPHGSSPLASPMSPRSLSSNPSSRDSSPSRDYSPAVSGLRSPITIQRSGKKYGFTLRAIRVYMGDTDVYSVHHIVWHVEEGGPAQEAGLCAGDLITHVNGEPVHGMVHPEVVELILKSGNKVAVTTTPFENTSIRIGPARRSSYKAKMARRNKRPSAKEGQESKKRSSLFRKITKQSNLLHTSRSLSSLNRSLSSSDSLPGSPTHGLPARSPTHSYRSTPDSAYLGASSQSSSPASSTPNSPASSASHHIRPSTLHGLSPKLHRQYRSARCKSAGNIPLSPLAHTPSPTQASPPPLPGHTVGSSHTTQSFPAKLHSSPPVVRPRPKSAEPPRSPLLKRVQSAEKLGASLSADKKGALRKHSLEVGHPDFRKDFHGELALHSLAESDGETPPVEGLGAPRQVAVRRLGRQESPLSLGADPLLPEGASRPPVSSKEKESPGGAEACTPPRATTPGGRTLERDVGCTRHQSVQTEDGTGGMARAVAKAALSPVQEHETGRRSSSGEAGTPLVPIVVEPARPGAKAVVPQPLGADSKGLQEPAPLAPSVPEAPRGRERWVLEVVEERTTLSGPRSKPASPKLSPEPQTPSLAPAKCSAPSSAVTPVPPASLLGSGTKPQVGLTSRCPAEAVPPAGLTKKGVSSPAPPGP
Sequence of Protein kinase C theta type (Q04759 whole entry, looked up): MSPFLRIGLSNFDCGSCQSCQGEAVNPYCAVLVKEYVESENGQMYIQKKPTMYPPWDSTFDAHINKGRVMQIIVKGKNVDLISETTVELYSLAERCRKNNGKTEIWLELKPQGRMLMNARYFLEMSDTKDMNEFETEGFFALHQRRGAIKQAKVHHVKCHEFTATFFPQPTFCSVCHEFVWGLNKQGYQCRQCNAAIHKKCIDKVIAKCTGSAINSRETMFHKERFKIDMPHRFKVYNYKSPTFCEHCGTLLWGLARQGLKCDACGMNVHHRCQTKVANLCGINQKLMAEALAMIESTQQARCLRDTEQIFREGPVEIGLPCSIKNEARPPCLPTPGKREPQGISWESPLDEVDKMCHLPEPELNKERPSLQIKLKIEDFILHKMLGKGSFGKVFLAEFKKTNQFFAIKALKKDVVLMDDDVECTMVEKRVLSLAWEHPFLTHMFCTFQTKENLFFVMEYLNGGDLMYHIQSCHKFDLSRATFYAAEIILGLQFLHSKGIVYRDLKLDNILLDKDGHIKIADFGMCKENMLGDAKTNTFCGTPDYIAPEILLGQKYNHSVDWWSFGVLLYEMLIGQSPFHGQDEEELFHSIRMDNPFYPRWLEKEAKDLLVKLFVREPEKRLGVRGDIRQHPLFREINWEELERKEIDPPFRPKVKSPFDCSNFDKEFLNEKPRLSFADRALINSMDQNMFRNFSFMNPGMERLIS
Sequence of Receptor-interacting serine/threonine-protein kinase 2 (O43353 whole entry): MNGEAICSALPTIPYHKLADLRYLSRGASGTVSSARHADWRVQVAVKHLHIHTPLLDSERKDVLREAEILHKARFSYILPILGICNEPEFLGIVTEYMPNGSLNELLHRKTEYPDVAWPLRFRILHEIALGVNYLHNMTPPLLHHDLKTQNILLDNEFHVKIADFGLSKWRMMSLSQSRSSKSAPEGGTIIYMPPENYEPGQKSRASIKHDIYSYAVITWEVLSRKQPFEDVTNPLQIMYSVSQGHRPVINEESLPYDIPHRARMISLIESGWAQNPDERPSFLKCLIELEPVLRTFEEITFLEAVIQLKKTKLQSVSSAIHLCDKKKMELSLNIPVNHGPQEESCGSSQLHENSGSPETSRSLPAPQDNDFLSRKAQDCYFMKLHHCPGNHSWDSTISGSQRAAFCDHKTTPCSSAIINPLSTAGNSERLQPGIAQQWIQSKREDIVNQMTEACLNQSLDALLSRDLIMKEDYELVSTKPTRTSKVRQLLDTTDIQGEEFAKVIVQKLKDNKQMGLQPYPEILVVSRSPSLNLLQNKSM
Sequence of Serine/threonine-protein kinase N2 (Q16513 whole entry, looked up): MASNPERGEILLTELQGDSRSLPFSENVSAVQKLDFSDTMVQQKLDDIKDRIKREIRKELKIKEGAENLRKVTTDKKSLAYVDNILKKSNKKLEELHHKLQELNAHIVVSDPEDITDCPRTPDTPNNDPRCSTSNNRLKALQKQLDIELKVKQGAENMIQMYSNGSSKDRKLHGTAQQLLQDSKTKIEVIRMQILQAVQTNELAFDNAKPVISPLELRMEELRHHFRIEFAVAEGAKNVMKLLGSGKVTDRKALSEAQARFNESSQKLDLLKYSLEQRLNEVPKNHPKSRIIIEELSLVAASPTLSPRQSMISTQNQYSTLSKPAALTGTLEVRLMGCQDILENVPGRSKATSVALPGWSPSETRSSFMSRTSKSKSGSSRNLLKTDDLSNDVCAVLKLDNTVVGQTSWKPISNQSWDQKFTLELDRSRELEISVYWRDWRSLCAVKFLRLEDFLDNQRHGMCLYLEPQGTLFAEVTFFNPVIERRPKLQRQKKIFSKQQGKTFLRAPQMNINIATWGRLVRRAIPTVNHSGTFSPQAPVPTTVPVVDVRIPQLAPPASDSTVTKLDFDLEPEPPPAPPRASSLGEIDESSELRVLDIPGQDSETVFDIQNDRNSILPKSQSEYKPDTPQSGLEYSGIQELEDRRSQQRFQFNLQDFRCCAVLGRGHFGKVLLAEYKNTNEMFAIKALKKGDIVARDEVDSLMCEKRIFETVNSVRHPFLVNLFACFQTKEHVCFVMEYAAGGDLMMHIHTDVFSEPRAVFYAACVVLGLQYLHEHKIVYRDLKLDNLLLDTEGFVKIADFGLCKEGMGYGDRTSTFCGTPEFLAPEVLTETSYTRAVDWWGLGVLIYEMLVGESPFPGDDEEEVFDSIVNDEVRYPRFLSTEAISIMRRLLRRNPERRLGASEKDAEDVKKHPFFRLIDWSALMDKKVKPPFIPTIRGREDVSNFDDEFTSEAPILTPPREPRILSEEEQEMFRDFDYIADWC

% of inhibition [1]: 2%
Structure (SMILES): CN1Cc2nccc(-c3cn(C)nc3-c3ccc(F)cc3)c2C1=O

Structure (SMILES): Nc1cnc(N2CCc3cc(S(=O)(=O)Nc4c(F)cc(Cl)cc4F)cc(N4CCCC4=O)c32)nc1 [TP-020n]
% of inhibition [2]: 0.32%

Structure (SMILES): CNC(=O)Nc1ccc(-c2nc(N3CC4CCC(C3)O4)c3cnn(C4CCC5(CC4)OCCO5)c3n2)cc1
% of control [3]: 100%

Structure (SMILES): C=CC(=O)Nc1cc(-n2c(=O)ccc3cnc4ccc(-c5ccc(NS(C)(=O)=O)cc5)cc4c32)ccc1C
% of control ([4]; at 1 µM): 100%
% of control ([4]; at 10 µM): 94%
% of control ([5]; at 1 µM): 100%
% of control ([5]; at 10 µM): 76%

% of inhibition [6]: 74%
Structure (SMILES): Cc1ccc(-c2ccc3c(ccc4sc5c(c43)NC[C@@H](C)NC5=O)n2)cn1

Structure (SMILES): C=CC(=O)Nc1ccc(C(=O)Nc2[nH]nc3c2CN(C(=O)N[C@H](CN(C)C)c2ccccc2)C3(C)C)cc1
% of engagement [7]: -0.5%

Structure (SMILES): Cc1cc([C@@H](C)Nc2ccccc2C(=O)O)c2nc(N3CCOCC3)cc(=O)n2c1 [AZD-6482]
% of control [8]: 100%

IC50 [9]: > 10 µM
Structure (SMILES): CCc1cccc(CC)c1NC(=O)c1nn(C)c2c1CCc1cnc(Nc3ccc(C(=O)NC4CCN(C)CC4)cc3OC(F)(F)F)nc1-2

Structure (SMILES): O=C(NOC[C@H](O)CO)c1ccc(F)c(F)c1Nc1ccc(I)cc1F
% of control [10]: 83%
